Paper PMC3502260, “Plasmodium serine hydroxymethyltransferase as a potential anti-malarial target: inhibition studies using improved methods for enzyme production and assay” (Malaria Journal, 2012)

What was measured:
PfSHMT [1] = target: T1, PfSHMT (Plasmodium falciparum, UniProt Q8I566); test: SHMT-MTHFD coupled assay, initial rates; type: biochemical; settings: read-out: % inhibition at 0.1 mM
T1 construct: gene SHMT; recombinant, expressed in E. coli BL21(DE3) as in an earlier report, purified on Ni-Sepharose; dimer
T1 sequence (Q8I566 1-442): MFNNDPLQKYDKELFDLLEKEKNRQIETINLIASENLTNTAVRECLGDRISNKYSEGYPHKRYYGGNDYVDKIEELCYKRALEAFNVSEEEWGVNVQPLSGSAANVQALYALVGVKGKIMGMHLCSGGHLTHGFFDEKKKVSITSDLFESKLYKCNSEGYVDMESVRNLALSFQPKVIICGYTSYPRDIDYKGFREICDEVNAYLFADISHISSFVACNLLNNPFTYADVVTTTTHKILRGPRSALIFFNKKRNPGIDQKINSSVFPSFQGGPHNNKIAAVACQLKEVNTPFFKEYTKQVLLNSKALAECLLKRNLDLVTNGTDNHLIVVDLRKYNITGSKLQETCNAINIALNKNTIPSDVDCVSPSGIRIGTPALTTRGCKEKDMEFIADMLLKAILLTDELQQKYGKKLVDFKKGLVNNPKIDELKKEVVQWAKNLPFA

PvSHMT [2] = target: T2, PvSHMT (Plasmodium vivax, UniProt A5K8L9); test: PLP fluorescence quenching; type: binding; settings: 10 mM ligand, ~23 μM enzyme, 25 °C, 50 mM HEPES pH 7
T2 construct: gene PVX_100730; recombinant, expressed in E. coli BL21(DE3) as in an earlier report; dimer
T2 sequence (A5K8L9 1-442): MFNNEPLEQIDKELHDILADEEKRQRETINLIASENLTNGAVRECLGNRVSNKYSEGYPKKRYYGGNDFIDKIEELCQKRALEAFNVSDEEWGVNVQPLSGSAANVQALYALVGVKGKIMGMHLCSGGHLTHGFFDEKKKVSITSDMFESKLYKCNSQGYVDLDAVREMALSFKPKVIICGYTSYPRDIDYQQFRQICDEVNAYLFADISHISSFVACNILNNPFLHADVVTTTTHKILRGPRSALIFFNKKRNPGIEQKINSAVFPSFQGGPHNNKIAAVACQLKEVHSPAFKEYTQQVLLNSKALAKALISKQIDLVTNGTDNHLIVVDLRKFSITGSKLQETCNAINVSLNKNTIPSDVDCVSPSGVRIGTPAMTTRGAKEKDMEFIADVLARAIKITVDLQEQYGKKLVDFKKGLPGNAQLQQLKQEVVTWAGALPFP

PfSHMT [3] = target: T1, PfSHMT; test: PLP fluorescence quenching; type: binding; settings: 10 mM ligand, ~23 μM enzyme, 25 °C, 50 mM HEPES pH 7
PvSHMT [4] = target: T2, PvSHMT; test: SHMT-MTHFD coupled assay, initial rates; type: biochemical; settings: read-out: % inhibition at 0.25 mM
PvSHMT [5] = target: T2, PvSHMT; test: time-dependent inactivation, SHMT-MTHFD coupled assay; type: biochemical; settings: covalent; time-dependent inactivation by reaction with PLP; preincubation 5-30 min; 25 °C, 50 mM HEPES pH 7
PfSHMT [6] = target: T1, PfSHMT; test: as above; type: biochemical; settings: covalent; time-dependent inactivation by reaction with PLP; preincubation 5-30 min; 25 °C, 50 mM HEPES pH 7

Row | SMILES | PLP fluorescence quenching (PvSHMT [2]) | PLP fluorescence quenching (PfSHMT [3]) | also measured
1 | CCOc1cc(Cc2cnc(N)nc2N)ccc1OCCCc1ccccc1 [CT-55-59-42] |  |  | inhibition at 100 µM (PfSHMT [1]): 40%
2 | CCCCOc1cc(Cc2cnc(N)nc2N)ccc1OCc1cc(OC)c(OC)c(OC)c1 [CT-57-59-38] |  |  | inhibition at 100 µM (PfSHMT [1]): 40%
3 | N[C@H](CO)C(=O)O [D-serine] | the fluorescence signal of Pf- and PvSHMT was quenched | Upon addition of amino acids (L-, D-serine, L-alanine, and glycine), the fluorescence signal of Pf- | 
4 | C[C@H](N)C(=O)O [L-alanine] | the fluorescence signal of Pf- and PvSHMT was quenched | Upon addition of amino acids (L-, D-serine, L-alanine, and glycine), the fluorescence signal of Pf- | 
5 | N[C@@H](CO)C(=O)O [L-serine] |  | Upon addition of amino acids (L-, D-serine, L-alanine, and glycine), the fluorescence signal of Pf- | 
6 | CCc1nc(N)nc(N)c1OCCCOc1ccnc2ccccc12 [TV-P-0-113] |  |  | inhibition at 250 µM (PvSHMT [4]): 40%
7 | NCC(=O)O [glycine] | the fluorescence signal of Pf- and PvSHMT was quenched | for PfSHMT the binding of glycine caused the largest decrease in fluorescence intensity | 
8 | NNC(N)=S [thiosemicarbazide] |  |  | KI (inactivation) (PvSHMT [5]): 210 ± 80 µM; KI (inactivation) (PfSHMT [6]): 360 ± 70 µM
